Results from patent US12358921B2, “Antiviral heterocyclic compounds” (priority 2022, dated 2025).

How the values were obtained:
[1] = system: HUMAN RSV-A (“LONG” STRAIN); assay: RSV-A assay (CPE, ATPlite) in Hep-2 cells; type: cell-based; details: human respiratory syncytial virus, 120 h, MOI 0.1, 5-day incubation
Text: Methods for RSV-A Assay Hep-2 cells, (originally derived from tumors grown in irradiated-cortisonised weanling rats that had been injected with epidermoid carcinoma tissue from the larynx of a person, but later found to be indistinguishable from HeLa cells by PCR DNA analysis), were used for the culturing of genotype A, “Long” strain RSV. Flasks were inoculated with RSV and viral stocks were collected once cytopathic effect (CPE) was greater than 90%. Viral stocks in 25% sucrose media were snap frozen using liquid nitrogen to increase viral stability. Viral stock titers were quantified by tissue culture infectious dose 50% (TCID50) using 8,000 cells per well and 3-fold viral dilutions across a 96-well plate, cultured for 4 days. Viral stock titers were also quantified by a plaque forming unit assay, as described elsewhere.
Following extensive parameter testing, the final assay is run as follows: Hep-2 cells are seeded into the inner 60 wells of a 96-well plate at 8,000 cells per well in a volume of 50 μL using Growth Media (DMEM without phenol red, 1% L-Glut, 1% Penn/Strep, 1% nonessential amino acids, 10% heat-inactivated FBS). 2-fold serial dilutions of control and test compounds are added to the wells in duplicate in a total volume of 25 μL. Viral stock is then added to the wells at a multiplicity of infection (MOI) of 0.1 in a volume of 25 μL, bringing the total volume of each well to 100 μL. The MOI is calculated using the PFU/mL, or TCID50 if unavailable. Each 96-well plate has a control column of 6 wells with cells and virus but no compound (negative control, max CPE), a column with cells but no compound or virus (positive control, minimum CPE), and a column with no cells or virus or compound (background plate/reagent control). The control wells with cells but no virus are given an additional 25 μL of growth media containing an equal quantity of sucrose as those wells receiving the viral stock in order to keep consistent in media and volume conditions. The outer wells of the plate are filled with 125 μL of moat media (DMEM, 1% Penn/Strep) to act as a thermal and evaporative moat around the test wells. Following a 5-day incubation period, the plates are read using ATPlite (50 uL added per well), which quantifies the amount of ATP (a measure of cell health) present in each well. Assay plates are read using the Envision luminometer. […] EC50 ranges are as follows: A<0.2 μM; B>0.2 μM.

hMPV A2 TN/94-49 = assay: HMPV antiviral assay Method 2 (LLC-MK2 cells with CP-100-356, ATP-Lite); type: cell-based; details: hMPV A2 TN/94-49, LLC-MK2 cells, 4 μM CP-100-356, Method 2
Description: In vitro HMPV antiviral activity was evaluated using the clinical isolate A2 strain TN 94-49 (obtained from Dr. John Williams, Vanderbilt University, Tennessee) and LLC-MK2 cells (Millipore Sigma CB_85062804), an immortalized kidney epithelial cell line from Macaca mulatta. Compounds were resuspended in dimethyl sulfoxide (DMSO) at 10 mM, serially diluted and added to a 384-well source plate. Subsequently, the compounds were diluted and transferred onto 384-well assay plates using the Echo-650 automated liquid handling system (Beckman Coulter, Indiana). The test compounds were assessed in duplicate at a top concentration of 200 nM followed by 2.5-fold serial dilutions to give a total of 10 concentration points. DMSO control wells were also included on the assay plates and were either infected or not, acting as positive and negative controls. A2 TN 94-49 virus infections were performed in-suspension with LLC-MK2 cells. The cells were washed twice with PBS and removed from the cell-culture flask with 0.25% trypsin-EDTA (Thermo Fisher Scientific, MA). The trypsin-EDTA was inactivated by resuspending in 2% fetal bovine serum (FBS) and OptiMEM (ThermoFisher Scientific, MA) containing 1% antibiotic-antimycotic. Cells were pelleted by centrifuging for 5 minutes at 800 rpm, the supernatant was removed, and cells were re-suspended and washed in PBS plus 100 μg/mL CaCl2). This step was performed twice. Cells were then re-suspended in serum-free (SF)-OptiMEM containing 4 μg/mL TPCK-Trypsin (Sigma Aldrich, MO), 1% antibiotic-antimycotic (ThermoFisher Scientific, MA), 100 μg/mL CaCl2), and 4 μM of CP-100-356, a P-glycoprotein inhibitor. Cells were counted and seeded at a density of 5,000 cells/well, 12.5 μL/well. Virus infections were done at a multiplicity of infection (MOI) of 0.16 with 12.5 μL added per well. Virus infections were performed in infection media which contained SF-OptiMEM, 100 μg/mL CaCl2) and 1% antibiotic-antimycotic. HMPV viral stocks are suspended in infection media+5% glycerol, thus an equal volume of infection media+5% glycerol was added to uninfected wells to equalize the final % glycerol across all wells of the assay plate. The final concentration of TPCK-trypsin was 2 μg/mL. The final concentration of CP-100-356 was 2 μM. The assay plates were incubated at 37° C., 5% CO2 for 7 days. After 7 days incubation, 12.5 μL of ATP-Lite (PerkinElmer, MA) was added to each well and the raw luminescence values were determined using the Envision 2104 (Perkin Elmer, MA). The average of the raw luminescence values for the cells and virus only positive control wells was subtracted from all conditions tested and the percent cell health was determined by dividing these values by the average of the cells only negative control wells. EC50 values were then calculated by non-linear regression using a four-parameter curve logistic equation. The curve fit model employed was XLFit Dose Response One Site Model 200: y=(A+(B/(1+((x/C)^D)))), where A is the minimum y value, B is the maximum y value, C is the log EC50value, and D is the slope factor.

SMILES	EC50 [1] [nM]	EC50 (hMPV A2 TN/94-49) [nM]
COc1cc(C(=O)NC[C@@](O)(c2ccc(=O)[nH]c2)c2cc3c(c(-c4cc(Cl)c(F)cc4F)n2)OC[C@]3(C)C(N)=O)cc2cn(C3CC3)nc12 [Example 505]	< 200	> 200
COc1cc(C(=O)NC[C@](O)(c2cc3c(c(-c4cc(Cl)c(F)cc4F)n2)OC[C@]3(C)C(N)=O)c2nccn2C)cc2cn(C3CC3)nc12 [Example 464]	> 200	> 200
COc1cc(F)c(-c2nc([C@@](O)(CNC(=O)c3cc(OC)c4nn(C5(F)CC5)cc4c3)c3ccccc3)cc3c2OC[C@]3(C)C(N)=O)cc1F [Example 363]	< 200	> 200
COc1cc(C(=O)NC[C@@](O)(c2ccccc2)c2cc3c(c(-c4cccc5c4OCO5)n2)OC[C@]3(C)C(N)=O)cc2cn(C3(F)CC3)nc12 [Example 366]	< 200	> 200
COc1cc(C(=O)NC[C@@](O)(c2ccccc2)c2cc3c(c(-c4ccc(S(C)(=O)=O)cc4F)n2)OC[C@]3(C)C(N)=O)cc2cn(C3(F)CC3)nc12 [Example 371]	< 200	> 200
COc1cc(C(=O)NC[C@@](O)(c2cccc(F)c2)c2cc3c(c(-c4ccc(C(C)(C)O)cc4)n2)OC[C@]3(C)C(N)=O)cc2cn(C3(F)CC3)nc12 [Example 397]	> 200	> 200
COc1cc(C(=O)NCC(O)(c2cc3c(c(-c4cc(Cl)c(F)cc4F)n2)OC[C@]3(C)C(N)=O)c2ccc(Cl)s2)cc2cn(C3CC3)nc12 (stereo partly drawn) [Example 472]	< 200	> 200
COc1cc(C(=O)NC[C@@](O)(c2cc[nH]c(=O)c2)c2cc3c(c(-c4cc(Cl)c(F)cc4F)n2)OC[C@]3(C)C(N)=O)cc2cn(C3CC3)nc12 [Example 504]	< 200	> 200
C[C@]1(C(N)=O)COc2c1cc([C@@](O)(CNC(=O)c1ccc3nc(C4CC4)oc3c1)c1ccccc1)nc2-c1cc(C(F)(F)F)c(F)cc1F [Example 307]	< 200	> 200
COc1cc(C(=O)NC[C@@](O)(c2cccc(F)c2)c2cc3c(c(-c4cccc(Cl)c4Cl)n2)OC[C@]3(C)C(N)=O)cc2cc(C3CC3)nn12 [Example 336]	< 200	< 200
COc1cc(C(=O)NC[C@@](O)(c2cccc(S(C)(=O)=O)c2)c2cc3c(c(-c4cc(Cl)c(F)cc4F)n2)OC[C@]3(C)C(N)=O)cc2cn(C3CC3)nc12 [Example 483]	< 200	< 200
COc1cc(C(=O)NC[C@](O)(c2cc3c(c(-c4cc(Cl)c(F)cc4F)n2)OC[C@]3(C)C(N)=O)c2ccnn2C)cc2cn(C3CC3)nc12 [Example 481]	–	< 200
COc1cc(F)c(F)cc1-c1nc([C@@](O)(CNC(=O)c2cc(OC)c3nn(C4(F)CC4)cc3c2)c2ccccc2)cc2c1OC[C@]2(C)C(N)=O [Example 365]	–	< 200
C[C@]1(C(N)=O)COc2c1cc([C@@](O)(CNC(=O)c1ccc3nc(C4CC4)oc3c1)c1ccccc1)nc2-c1cc(F)c(F)cc1F [Example 194]	–	< 200
COc1cc(C(=O)NC[C@@](O)(c2cncnc2)c2cc3c(c(-c4cc(Cl)c(F)cc4F)n2)OC[C@]3(C)C(N)=O)cc2cn(C3CC3)nc12 [Example 479]	–	< 200
C[C@]1(C(N)=O)COc2c1cc([C@@](O)(CNC(=O)c1ccc3nc(-c4ccc5nc(C(F)F)oc5c4)oc3c1)c1ccccc1)nc2-c1cc(Cl)c(F)cc1F [Example 223]	–	> 200
C[C@]1(C(N)=O)COc2c1cc([C@@](O)(CNC(=O)c1ccc3nc(-c4ccccc4)oc3c1)c1ccccc1)nc2-c1cc(Cl)c(F)cc1F [Example 227]	–	> 200
COc1cc(C(=O)NC[C@@](O)(c2ccccc2)c2cc3c(c(-c4cc(C(F)(F)F)ccc4F)n2)OC[C@]3(C)C(N)=O)cc2oc(C3CC3)nc12 [Example 332]	–	< 200
C[C@]1(C(N)=O)COc2c1cc([C@@](O)(CNC(=O)c1ccc3nc(C4CC4)oc3c1)c1ccccc1)nc2-c1ccc2c(c1)OC(F)(F)O2 [Example 199]	–	> 200
Cc1nc2c(OC3CC3)cc(C(=O)NC[C@@](O)(c3ccccc3)c3cc4c(c(-c5cc(Cl)c(F)cc5F)n3)OC[C@]4(C)C(N)=O)cc2s1 [Example 189]	–	< 200
COc1cc(C(=O)NC[C@@](O)(c2cnoc2)c2cc3c(c(-c4cc(Cl)c(F)cc4F)n2)OC[C@]3(C)C(N)=O)cc2cn(C3CC3)nc12 [Example 491]	–	< 200
COc1cc(C(=O)NCC(O)(c2cccc(F)c2)c2cc3c(c(-c4cccc(Cl)c4C#N)n2)OC[C@]3(C)C(N)=O)cc2cn(C3(F)CC3)nc12 (stereo partly drawn) [Example 399]	–	> 200

Next, values leading:

EC50 [1] [nM]	EC50 (hMPV A2 TN/94-49) [nM]	SMILES
< 200	< 200	COc1cc(C(=O)NC[C@@](O)(c2ccccc2)c2cc3c(c(-c4cc(Cl)c(F)cc4F)n2)OC[C@]3(C)C(N)=O)cc2oc(C3(F)CC3)nc12 [Example 241]
< 200	< 200	COc1cc(C(=O)NC[C@@](O)(c2ccccc2)c2cc3c(c(-c4cc(F)c(F)cc4F)n2)OC[C@]3(C)C(N)=O)cc2oc(C3CC3)nc12 [Example 195]
< 200	< 200	C[C@]1(C(N)=O)COc2c1cc([C@@](O)(CNC(=O)c1cc(OC3CC3)c3ncc(Cl)cc3c1)c1ccccc1)nc2-c1cc(F)c(F)cc1F [Example 197]
< 200	< 200	COc1cc(C(=O)NC[C@@](O)(c2cccc(F)c2)c2cc3c(c(-c4ccc5c(c4Cl)OC(F)(F)O5)n2)OC[C@]3(C)C(N)=O)cc2oc(C3CC3)nc12 [Example 286]
< 200	< 200	COc1cccc([C@](O)(CNC(=O)c2cc(OC)c3nn(C4CC4)cc3c2)c2cc3c(c(-c4cccc(Cl)c4Cl)n2)OC[C@]3(C)C(N)=O)n1 [Example 496]
< 200	< 200	C[C@]1(C(N)=O)COc2c1cc([C@@](O)(CNC(=O)c1cc(F)c3nn(C4CC4)cc3c1)c1ccccc1)nc2-c1cc(Cl)c(F)cc1F [Example 100]
< 200	< 200	COc1cc(C(=O)NC[C@@](O)(c2cccc(F)n2)c2cc3c(c(-c4cc(Cl)c(F)cc4F)n2)OC[C@]3(C)C(N)=O)cc2cn(C(F)F)nc12 [Example 205]
< 200	< 200	C[C@]1(C(N)=O)COc2c1cc([C@@](O)(CNC(=O)c1cc(OC3CC3)c3ncc(Cl)cc3c1)c1ccccc1)nc2-c1ccc(F)c(Cl)c1Cl [Example 313]
< 200	< 200	COc1cc(C(=O)NC[C@@](O)(c2ccccc2)c2cc3c(c(-c4cc(C(F)(F)F)c(F)cc4F)n2)OC[C@]3(C)C(N)=O)cc2cn(C(F)F)nc12 [Example 304]
